Test results: patent US20140288044A1, “COMPOSITIONS AND THERAPEUTIC USES OF IKK-RELATED KINASE EPSILON AND TANKBINDING KINASE 1 INHIBITORS” (Alzheimer's Institute of America, Inc., priority 2011, published 2014)
Like-named read-outs stand apart in the source and are kept apart here.

Target: T1, IKKε (Homo sapiens, UniProt Q14164)
T1 construct: His-tag (in-house Sf9 preparation) or GST-tag (purchased Invitrogen preparation); these are alternatives, not both on one protein; host or cells: Sf9 cells
T1 sequence (Q14164 1-716): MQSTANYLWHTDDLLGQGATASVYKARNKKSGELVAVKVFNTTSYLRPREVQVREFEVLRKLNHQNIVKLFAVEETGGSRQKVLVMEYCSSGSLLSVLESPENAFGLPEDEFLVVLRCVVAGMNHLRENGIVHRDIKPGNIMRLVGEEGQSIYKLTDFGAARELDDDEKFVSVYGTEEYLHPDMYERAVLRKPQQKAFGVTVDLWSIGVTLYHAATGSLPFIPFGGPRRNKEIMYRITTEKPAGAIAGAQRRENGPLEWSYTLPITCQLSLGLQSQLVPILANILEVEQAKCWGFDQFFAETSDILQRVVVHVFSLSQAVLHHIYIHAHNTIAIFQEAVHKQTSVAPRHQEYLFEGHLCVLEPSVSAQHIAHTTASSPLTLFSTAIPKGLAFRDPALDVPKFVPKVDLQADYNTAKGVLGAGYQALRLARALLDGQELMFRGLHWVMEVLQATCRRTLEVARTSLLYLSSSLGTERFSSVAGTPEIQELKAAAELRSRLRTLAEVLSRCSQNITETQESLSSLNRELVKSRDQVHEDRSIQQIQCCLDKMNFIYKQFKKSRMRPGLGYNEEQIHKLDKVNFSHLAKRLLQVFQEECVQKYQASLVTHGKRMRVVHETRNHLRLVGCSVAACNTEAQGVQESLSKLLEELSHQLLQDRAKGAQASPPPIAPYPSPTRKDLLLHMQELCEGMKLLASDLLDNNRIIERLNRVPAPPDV
Test: In-vitro IKKε kinase assay (radiolabelled ATP, filterplate)
Assay type: biochemical
Description: IKKε enzyme was produced as a His-tag fusion in Sf9 cells or purchased as a GST-tag fusion (Invitrogen, Carlsbad, Calif.). TBK1 enzyme was produced as a His-tag fusion in Sf9 cells. Kinase reactions were carried out in reaction buffer using myelin basic protein (Millipore, Ballerica, Mass.), casein or dephosphorylated casein (Sigma, St. Louis, Mo.) as substrate at an ATP concentration equal to twice the Km,ATP value for each enzyme, corresponding to 32 μM ATP for IKKε and 60 μM ATP for TBK1. Radiolabelled [γ^33]ATP (PerkinElmer, Waltham, Mass.) in the amount of […] (IKKe, “normal”) or 0.7 μCi (IKKε, “sensitized”) or 1.25 μCi (TBK1) was added to each assay. Final enzyme concentrations were 0.1 or 0.015 μg/ml (IKKε) and 0.1 or 0.02 μg/ml (TBK1) for the “normal” and “sensitized” assay, respectively, and “sensitized” assays were conducted using only dephosphorylated casein as substrate. Test compounds (or DMSO solvent as a control) were added prior to initiation of the reactions. Reactions were terminated after 30-45 minutes by adding 3% phosphoric acid. Terminated reactions were transferred to P-81 cellulose phosphate filterplates (Whatman, Inc., Piscataway, N.J.) and washed with 1% phosphoric acid on a vacuum apparatus. After air drying, scintillant (PerkinElmer, Waltham, Mass.) was added and the plates were read on a PerkinElmer TopCount NXT instrument. Counts were normalized to DMSO controls after background subtraction.

[1] = in-vitro IKKε kinase inhibition assays, given as 0.005 μM (5 nM), read-out: IKKε kinase inhibitory activity (IC50 value)
[2] = "sensitized" assay, read-out: IC50, inhibition of the kinase activity of IKKε

Structure (SMILES)	IC50 [1]	IC50 [2]
N#Cc1cc(-c2ccnc(Nc3ccc(CNC(=O)N4CCOCC4)nc3)n2)ccc1OC1CCOCC1 [Example Compound 67, N-{[5-({4-[3-Cyano-4-(tetrahydro-2H-pyran-4-yloxy)phenyl]pyrimidin-2-yl}amino)pyridin-2-yl]methyl}morpholine-4-carboxamide]	< 5 nM	
N#Cc1cc(-c2ccnc(Nc3cncc(N4CCOCC4)n3)n2)ccc1OC1CCOCC1 [Example Compound 89, 5-(2-{[6-(Morpholin-4-yl)pyrazin-2-yl]amino}pyrimidin-4-yl)-2-(tetrahydro-2H-pyran-4-yloxy)benzonitrile]	< 5 nM	< 5 nM
CN(Cc1ccc(Nc2nccc(-c3ccc(OC4CCOCC4)c(C#N)c3)n2)cn1)C(=O)C1(N)CC1 [Example Compound 196, 1-Amino-N-{[5-({4-[3-cyano-4-(tetrahydro-2H-pyran-4-yloxy)phenyl]pyrimidin-2-yl}amino)pyridin-2-yl]methyl}-N-methylcyclopropanecarboxamide]		< 5 nM
COc1cc(Nc2nccc(-c3ccc(O[C@@H]4CCN(C(=O)CO)C4)c(C#N)c3)n2)ccn1 [Example Compound 121, 2-{[(3R)-1-(Hydroxyacetyl)pyrrolidin-3-yl]oxy}-5-{2-[(2-methoxypyridin-4-yl)amino]pyrimidin-4-yl}benzonitrile]	< 5 nM	
N#Cc1cc(-c2ccnc(Nc3ccc(C(=O)N4CCC4)nc3)n2)ccc1OC1CCOCC1 [Example Compound 30, 5-(2-{[6-(Azetidin-1-ylcarbonyl)pyridin-3-yl]amino}pyrimidin-4-yl)-2-(tetrahydro-2H-pyran-4-yloxy)benzonitrile]	< 5 nM	< 5 nM
N#Cc1cc(-c2ccnc(Nc3ccc(/C=C/CN4CCOCC4)nc3)n2)ccc1OC1CCOCC1 [Example Compound 190, 5-[2-({6-[(1E)-3-(Morpholin-4-yl)prop-1-en-1-yl]pyridin-3-yl}amino)pyrimidin-4-yl]-2-(tetrahydro-2H-pyran-4-yloxy)benzonitrile]		< 5 nM
COCCNc1cc(Nc2nccc(-c3ccc(OC4CCOCC4)c(C#N)c3)n2)ccn1 [Example Compound 38, 5-[2-({2-[(2-Methoxyethyl)amino]pyridin-4-yl}amino)pyrimidin-4-yl]-2-(tetrahydro-2H-pyran-4-yloxy)benzonitrile]	< 5 nM	
N#Cc1cc(-c2ccnc(Nc3ccnc(N4CCC[C@H]4CO)c3)n2)ccc1OC1CCOCC1 [Example Compound 40, 5-[2-({2-[(2S)-2-(Hydroxymethyl)pyrrolidin-1-yl]pyridin-4-yl}amino)pyrimidin-4-yl]-2-(tetrahydro-2H-pyran-4-yloxy)benzonitrile]	< 5 nM	< 5 nM
N#Cc1cc(-c2ccnc(Nc3ccnc(CN4CC(O)C4)c3)n2)ccc1OC1CCOCC1 [Example Compound 218, 5-[2-({2-[(3-Hydroxyazetidin-1-yl)methyl]pyridin-4-yl}amino)pyrimidin-4-yl]-2-(tetrahydro-2H-pyran-4-yloxy)benzonitrile]		< 5 nM
Cn1cc(-c2ccc(Nc3nccc(-c4ccc(OC5CCOCC5)c(C#N)c4)n3)cn2)cn1 [Example Compound 189, 5-(2-{[6-(1-Methyl-1H-pyrazol-4-yl)pyridin-3-yl]amino}pyrimidin-4-yl)-2-(tetrahydro-2H-pyran-4-yloxy)benzonitrile]		< 5 nM
COCCNCc1cncc(Nc2nccc(-c3ccc(OC4CCOCC4)c(C#N)c3)n2)c1 [Example Compound 22, 5-{2-[(5-{[(2-Methoxyethyl)amino]methyl}pyridin-3-yl)amino]pyrimidin-4-yl}-2-(tetrahydro-2H-pyran-4-yloxy)benzonitrile]	< 5 nM	
N#Cc1cc(-c2ccnc(Nc3ccnc(N4CCC[C@@H]4CO)c3)n2)ccc1OC1CCOCC1 [Example Compound 194, 5-[2-({2-[(2R)-2-(Hydroxymethyl)pyrrolidin-1-yl]pyridin-4-yl}amino)pyrimidin-4-yl]-2-(tetrahydro-2H-pyran-4-yloxy)benzonitrile]		< 5 nM
